According to US20010034345A1, “METHODS OF ADMINSTERING AN AMPA RECEPTOR ANTAGONIST TO TREAT DYSKINESIAS ASSOCIATED WITH DOPAMINE AGONIST THERAPY” (priority 1997, published 2001):

Legend:
[1] = test system: choreic dyskinesia induced by dopamine agonist; experiment: In vivo model for dyskinesias associated with dopamine agonist therapy (MPTP parkinsonian monkeys); settings: 0.3 mg/kg sc.; one MPTP parkinsonian monkey, dyskinesias induced by chronic L-DOPA followed by PHNO
Experimental: The following procedure may be used to assess the efficacy of an AMPA receptor antagonist in the treatment of dyskinesias associated with dopamine agonist therapy in the treatment of Parkinson's disease. Aged, female rhesus monkeys are rendered Parkinsonian as follows. Each monkey is first infused with 0.4 mg/kg MPTP (1-methyl-4-phenyl-1,2,3,6-tetrahydropyridine) via the right internal carotid artery. After being evaluated behaviorally for 3 to 6 weeks and being judged to have stable unilateral deficits, the animals receive a second MPTP injection via the left internal carotid artery. […] Once the monkeys are Parkinsonian, dyskinesias are induced over a period of approximately 3 to 6 weeks by treating the monkeys twice daily with subcutaneous injections of PHNO ((+)-4-propyl-9-hydroxynaphthoxazine) (a dopamine agonist). Dyskinesias are assessed 30 minutes after PHNO injection and every 30 minutes for the next 120 minutes (5 measurements) taking into account the following: type of dyskinesia (chorea, dystonia); intensity (0=absent; 1=mild; 2=moderate; 3=severe); and topography (arm, leg, trunk, generalized). The overall score (0-3) is averaged over the 5 measurements. Scoring is performed blindly from coded videotapes. An AMPA receptor antagonist is then administered together with the dopamine agonist at dosages ranging from 0.05 mg/kg to 1 mg/kg. […]

[2] = test system: behavior of monkeys (MPTP-treated or untreated); experiment: Behavioral effect in other monkeys (MPTP-treated or untreated); format: in vivo, monkey; settings: 0.3 mg/kg sc.
Experimental: Monkeys were made parkinsonian by intracarotid injection of the dopamine neuron toxin MPTP. Choreic and dystonic dyskinesias were induced in one monkey by chronic administration of L-DOPA followed by the selective D2 agonist PHNO. 3-(2-chloro-phenyl)-2-[2(6-diethylaminomethyl-pyridin-2-yl)-vinyl]-6-fluoro-3H-quinazolin-4-one (0.3 mg/kg sc.) reduced by 80% the choreic dyskinesia induced by dopamine agonist.

For `CCN(CC)Cc1cccc(C=Cc2nc3ccc(F)cc3c(=O)n2-c2ccccc2Cl)n1` [3-(2-chloro-phenyl)-2-[2-(6-diethylaminomethyl-pyridin-2-yl)-vinyl]-6-fluoro-3H-quinazolin-4-one], the “reduction of choreic dyskinesia induced by dopamine agonist” value [1] was 80% and the behavioral effect [2] was “little or no behavioral effect”.
